# Measurements as given in the supplement of paper PMC10307832.
# Key:
# Test in all cases: relative viability (nuclei count vs DMSO), 5 days (fraction); higher = more cells survive
# BEN = tested on: BEN
# Outline: (§1)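 Relative viability is defined as nuclei in treated wells over nuclei in vehicle wells. Duplicate plates were run and medians reported. Lung cancer cell lines in 1536-well plates were dosed by pin tool one day after seeding, with one drug or with a fixed anchor-drug dose plus five library-drug doses (not always all listed) in √10 steps, and nuclei were counted after 5 days.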
# CAL-12T = tested on: CAL-12T
# Outline: as §1
# COR-L23 = tested on: COR-L23
# Outline: as §1
# HCC-366 = tested on: HCC-366
# Outline: as §1
# LOU-NH91 = tested on: LOU-NH91
# Outline: as §1
# LU99A = tested on: LU99A
# Outline: as §1
# NCI-H1355 = tested on: NCI-H1355
# Outline: as §1
# NCI-H1437 = tested on: NCI-H1437
# Outline: as §1
# NCI-H1563 = tested on: NCI-H1563
# Outline: as §1
# NCI-H1650 = tested on: NCI-H1650
# Outline: as §1
# NCI-H1651 = tested on: NCI-H1651
# Outline: as §1
# NCI-H1734 = tested on: NCI-H1734
# Outline: as §1
# NCI-H1793 = tested on: NCI-H1793
# Outline: as §1
# NCI-H1975 = tested on: NCI-H1975
# Outline: as §1
# NCI-H2023 = tested on: NCI-H2023
# Outline: as §1
# NCI-H2085 = tested on: NCI-H2085
# Outline: as §1
# NCI-H2342 = tested on: NCI-H2342
# Outline: as §1
# NCI-H358 = tested on: NCI-H358
# Outline: as §1
# NCI-H441 = tested on: NCI-H441
# Outline: as §1
# NCI-H460 = tested on: NCI-H460
# Outline: as §1
# NCI-H838 = tested on: NCI-H838
# Outline: as §1
# SK-LU-1 = tested on: SK-LU-1
# Outline: as §1
compound,measurement,setting,value
O=c1cc(-c2cccc3c2Sc2ccccc2S3)oc(N2CCOCC2)c1 + COc1cccc2cc(-c3nc([C@H]4CC[C@H](C(=O)O)CC4)n4ncnc(N)c34)[nH]c12 [OSI-027] (partner 0.5 µM),relative viability,BEN; first compound 0.08 µM,0.279
same,relative viability,BEN; first compound 0.253 µM,0.268
same,relative viability,BEN; first compound 0.8 µM,0.281
same,relative viability,BEN; first compound 2.53 µM,0.298
same,relative viability,BEN; first compound 8 µM,0.321
same,relative viability,CAL-12T; first compound 0.08 µM,0.671
same,relative viability,CAL-12T; first compound 0.253 µM,0.709
same,relative viability,CAL-12T; first compound 0.8 µM,0.407
same,relative viability,CAL-12T; first compound 2.53 µM,0.57
same,relative viability,CAL-12T; first compound 8 µM,0.297
same,relative viability,COR-L23; first compound 0.08 µM,0.8
same,relative viability,COR-L23; first compound 0.253 µM,1.21
same,relative viability,COR-L23; first compound 0.8 µM,0.892
same,relative viability,COR-L23; first compound 2.53 µM,0.801
same,relative viability,COR-L23; first compound 8 µM,1
same,relative viability,HCC-366; first compound 0.08 µM,0.89
same,relative viability,HCC-366; first compound 0.253 µM,1.2
same,relative viability,HCC-366; first compound 0.8 µM,0.692
same,relative viability,HCC-366; first compound 2.53 µM,0.723
same,relative viability,HCC-366; first compound 8 µM,0.775
same,relative viability,LOU-NH91; first compound 0.08 µM,0.687
same,relative viability,LOU-NH91; first compound 0.253 µM,0.736
same,relative viability,LOU-NH91; first compound 0.8 µM,0.594
same,relative viability,LOU-NH91; first compound 2.53 µM,0.628
same,relative viability,LOU-NH91; first compound 8 µM,0.758
same,relative viability,LU99A; first compound 0.08 µM,0.282
same,relative viability,LU99A; first compound 0.253 µM,0.285
same,relative viability,LU99A; first compound 0.8 µM,0.308
same,relative viability,LU99A; first compound 2.53 µM,0.335
same,relative viability,LU99A; first compound 8 µM,0.303
same,relative viability,NCI-H1355; first compound 0.08 µM,0.402
same,relative viability,NCI-H1355; first compound 0.253 µM,0.376
same,relative viability,NCI-H1355; first compound 0.8 µM,0.335
same,relative viability,NCI-H1355; first compound 2.53 µM,0.338
same,relative viability,NCI-H1355; first compound 8 µM,0.33
same,relative viability,NCI-H1437; first compound 0.08 µM,0.885
same,relative viability,NCI-H1437; first compound 0.253 µM,1.17
same,relative viability,NCI-H1437; first compound 0.8 µM,1.01
same,relative viability,NCI-H1437; first compound 2.53 µM,0.891
same,relative viability,NCI-H1437; first compound 8 µM,1.02
same,relative viability,NCI-H1563; first compound 0.08 µM,0.728
same,relative viability,NCI-H1563; first compound 0.253 µM,0.756
same,relative viability,NCI-H1563; first compound 0.8 µM,0.77
same,relative viability,NCI-H1563; first compound 2.53 µM,0.717
same,relative viability,NCI-H1563; first compound 8 µM,0.676
same,relative viability,NCI-H1650; first compound 0.08 µM,0.615
same,relative viability,NCI-H1650; first compound 0.253 µM,0.593
same,relative viability,NCI-H1650; first compound 0.8 µM,0.506
same,relative viability,NCI-H1650; first compound 2.53 µM,0.521
same,relative viability,NCI-H1650; first compound 8 µM,0.561
same,relative viability,NCI-H1651; first compound 0.08 µM,0.625
same,relative viability,NCI-H1651; first compound 0.253 µM,0.767
same,relative viability,NCI-H1651; first compound 0.8 µM,0.711
same,relative viability,NCI-H1651; first compound 2.53 µM,0.6
same,relative viability,NCI-H1651; first compound 8 µM,0.702
same,relative viability,NCI-H1734; first compound 0.08 µM,0.556
same,relative viability,NCI-H1734; first compound 0.253 µM,0.613
same,relative viability,NCI-H1734; first compound 0.8 µM,0.611
same,relative viability,NCI-H1734; first compound 8 µM,0.61
same,relative viability,NCI-H1793; first compound 0.08 µM,0.227
same,relative viability,NCI-H1793; first compound 0.253 µM,0.29
same,relative viability,NCI-H1793; first compound 0.8 µM,0.248
same,relative viability,NCI-H1793; first compound 2.53 µM,0.227
same,relative viability,NCI-H1793; first compound 8 µM,0.267
same,relative viability,NCI-H1975; first compound 0.08 µM,0.74
same,relative viability,NCI-H1975; first compound 0.253 µM,0.993
same,relative viability,NCI-H1975; first compound 0.8 µM,0.793
same,relative viability,NCI-H1975; first compound 2.53 µM,0.587
same,relative viability,NCI-H1975; first compound 8 µM,0.503
same,relative viability,NCI-H2023; first compound 0.08 µM,0.353
same,relative viability,NCI-H2023; first compound 0.253 µM,0.379
same,relative viability,NCI-H2023; first compound 0.8 µM,0.396
same,relative viability,NCI-H2023; first compound 2.53 µM,0.315
same,relative viability,NCI-H2023; first compound 8 µM,0.256
same,relative viability,NCI-H2085; first compound 0.08 µM,0.635
same,relative viability,NCI-H2085; first compound 0.253 µM,0.88
same,relative viability,NCI-H2085; first compound 0.8 µM,0.695
same,relative viability,NCI-H2085; first compound 2.53 µM,0.512
same,relative viability,NCI-H2085; first compound 8 µM,0.525
same,relative viability,NCI-H2342; first compound 0.08 µM,0.569
same,relative viability,NCI-H2342; first compound 0.253 µM,0.607
same,relative viability,NCI-H2342; first compound 0.8 µM,0.545
same,relative viability,NCI-H2342; first compound 2.53 µM,0.594
same,relative viability,NCI-H2342; first compound 8 µM,0.568
same,relative viability,NCI-H358; first compound 0.08 µM,0.836
same,relative viability,NCI-H358; first compound 0.253 µM,0.999
same,relative viability,NCI-H358; first compound 0.8 µM,0.815
same,relative viability,NCI-H358; first compound 2.53 µM,0.807
same,relative viability,NCI-H358; first compound 8 µM,0.869
same,relative viability,NCI-H441; first compound 0.08 µM,0.5
same,relative viability,NCI-H441; first compound 0.253 µM,0.813
same,relative viability,NCI-H441; first compound 0.8 µM,0.671
same,relative viability,NCI-H441; first compound 2.53 µM,0.645
same,relative viability,NCI-H441; first compound 8 µM,0.761
same,relative viability,NCI-H460; first compound 0.08 µM,0.605
same,relative viability,NCI-H460; first compound 0.253 µM,0.994
same,relative viability,NCI-H460; first compound 0.8 µM,0.643
same,relative viability,NCI-H460; first compound 2.53 µM,0.568
same,relative viability,NCI-H460; first compound 8 µM,0.527
same,relative viability,NCI-H838; first compound 0.08 µM,0.344
same,relative viability,NCI-H838; first compound 0.253 µM,0.417
same,relative viability,NCI-H838; first compound 0.8 µM,0.312
same,relative viability,NCI-H838; first compound 2.53 µM,0.339
same,relative viability,NCI-H838; first compound 8 µM,0.41
same,relative viability,SK-LU-1; first compound 0.08 µM,0.322
same,relative viability,SK-LU-1; first compound 0.253 µM,0.375
same,relative viability,SK-LU-1; first compound 0.8 µM,0.335
same,relative viability,SK-LU-1; first compound 2.53 µM,0.364
same,relative viability,SK-LU-1; first compound 8 µM,0.301
